In US20260356851A1, “TRICYCLIC COMPOUNDS AND USES THEREOF” (HUTCHMED LIMITED, priority 2023, published 2026):
Where two headings read alike, the source gives them in different places.

Experiments:
Type in all cases: cell-based
[1] = target: T1, pERK1/2 (Thr202/Tyr204), NCI-1H441 (KRAS G12V) (Homo sapiens, UniProt P01116, G12V); experiment: Assay of intracellular pERK1/2 (Thr202/Tyr204) phosphorylation in NCI-H441 cells (KRAS G12V)
T1 construct: pERK1/2 HTRF read-out
Summary of the method: (§1)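 HTRF detection of Thr202/Tyr204-phosphorylated ERK1/2 (665/615 nm ratio) in lysates from cells treated 2 days with serially 3-fold diluted compound.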

[2] = target: T2, pERK1/2 (Thr202/Tyr204), NCI-1H358 (KRAS G12C) (Homo sapiens, UniProt P01116, G12C); experiment: Assay of intracellular pERK1/2 (Thr202/Tyr204) phosphorylation in NCI-H358 cells (KRAS G12C)
T2 construct: pERK1/2 HTRF read-out
Summary of the method: as §1

[3] = target: T3, pERK1/2 (Thr202/Tyr204), PANC-1 (KRAS G121D) (Homo sapiens, UniProt P01116, G12D); experiment: Assay of intracellular pERK1/2 (Thr202/Tyr204) phosphorylation in PANC-1 cells (KRAS G12D)
T3 construct: pERK1/2 HTRF read-out
Summary of the method: as §1

[4] = pERK1/2, 2 days, read-out: NCI-H441 (KRAS G12V) IC50
[5] = pERK1/2, 2 days, read-out: NCI-H358 (KRAS G12C) IC50
[6] = pERK1/2, 2 days, read-out: PANC-1 (KRAS G12D) IC50

T3 sequence (P01116 1-188 isoform P01116-2 G12D): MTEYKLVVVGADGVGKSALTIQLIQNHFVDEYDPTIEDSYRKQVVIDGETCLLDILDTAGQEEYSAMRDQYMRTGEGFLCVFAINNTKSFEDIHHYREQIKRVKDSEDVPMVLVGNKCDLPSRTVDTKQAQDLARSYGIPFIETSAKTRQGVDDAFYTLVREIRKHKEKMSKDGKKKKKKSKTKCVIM
T1 sequence (P01116 1-188 isoform P01116-2 G12V): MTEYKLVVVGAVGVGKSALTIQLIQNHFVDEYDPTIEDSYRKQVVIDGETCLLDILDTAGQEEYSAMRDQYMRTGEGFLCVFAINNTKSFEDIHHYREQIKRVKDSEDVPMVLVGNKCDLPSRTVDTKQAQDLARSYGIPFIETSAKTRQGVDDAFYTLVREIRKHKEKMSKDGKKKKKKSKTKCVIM
T2 sequence (P01116 1-188 isoform P01116-2 G12C): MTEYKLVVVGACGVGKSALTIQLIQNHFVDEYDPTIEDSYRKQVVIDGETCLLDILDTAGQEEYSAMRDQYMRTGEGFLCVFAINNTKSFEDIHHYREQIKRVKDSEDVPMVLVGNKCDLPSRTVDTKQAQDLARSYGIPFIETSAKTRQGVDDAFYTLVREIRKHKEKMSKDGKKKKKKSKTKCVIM

In the case of `C[C@@H](c1cccnc1N)N1CCOc2nc(-c3c(C(F)(F)F)ccc4[nH]ncc34)c(F)c3nc(OC[C@@]45CCCN4C[C@H](F)C5)nc1c23` (single isomer, unassigned) [Compound 27, 3-((1R or 1S)-1-(4-fluoro-2-(((2R,7aS)-2-fluorotetrahydro-1H-pyrrolizin-7a(5H)-yl)methoxy)-5-(5-(trifluoromethyl)-1H-indazol-4-yl)-8,9-dihydro-10H-7-oxa-1,3,6,10-tetraazacyclohepta[de]naphthalen-10-yl)ethyl)pyridin-2-amine], the IC50 [1, 4] is reported as 11 nM, the IC50 [2, 5] is reported as 2 nM and the IC50 [3, 6] is reported as 106 nM.

With `Cc1cc(N)cc(-c2nc3c4c(nc(OC[C@@H]5C[C@@H](F)CN5C)nc4c2F)N(C(C)c2cccnc2N)[C@@H](C)CO3)c1C(F)(F)F` (single isomer, unassigned) [Compound 282, 3-((R or S)-1-((S)-5-(5-amino-3-methyl-2-(trifluoromethyl)phenyl)-4-fluoro-2-(((2S,4R)-4-fluoro-1-methylpyrrolidin-2-yl)methoxy)-9-methyl-8,9-dihydro-10H-7-oxa-1,3,6,10-tetraazacyclohepta[de]naphthalen-10-yl)ethyl)pyridin-2-amine] the IC50 [1, 4] was 0.4 nM, the IC50 [2, 5] was 0.2 nM and the IC50 [3, 6] was 3 nM.

Compound `Cc1cc(N)cc(-c2nc3c4c(nc(OC[C@@]56CCCN5C[C@H](F)C6)nc4c2F)N(C(C)c2cccnc2N)C2(CC2)CO3)c1C(F)(F)F` (stereo partly drawn) [Compound 181] has an IC50 [1, 4] of over 100 nM, an IC50 [2, 5] of over 100 nM and an IC50 [3, 6] of over 100 nM.

Compound `Cc1cc(N)cc(-c2nc3c4c(nc(OC[C@@]56CCCN5C[C@H](F)C6)nc4c2F)N(C(C)c2cccnc2N)CCO3)c1C(F)(F)F` (stereo partly drawn) [Compound 59] has an IC50 [1, 4] of 0.7 nM, an IC50 [2, 5] of 0.2 nM and an IC50 [3, 6] of 2 nM.

Compound `Cc1cc2[nH]ncc2c(-c2nc3c4c(nc(OC[C@@]56CCCN5C[C@H](F)C6)nc4c2F)N([C@@H](C)c2cccnc2N)[C@@H](C2CC2)CO3)c1C(F)(F)F` [Compound 391] has an IC50 [1, 4] of over 100 nM, an IC50 [2, 5] of over 100 nM and an IC50 [3, 6] of over 100 nM.

With `CCC(c1cccnc1N)N1CCOc2nc(-c3cc(N)c(F)c(C)c3C(F)(F)F)c(F)c3nc(OC[C@@]45CCCN4C[C@H](F)C5)nc1c23` (single isomer, unassigned) [Compound 212, 3-((R or S)-1-(5-(5-amino-4-fluoro-3-methyl-2-(trifluoromethyl)phenyl)-4-fluoro-2-(((2R,7aS)-2-fluorotetrahydro-1H-pyrrolizin-7a(5H)-yl)methoxy)-8,9-dihydro-10H-7-oxa-1,3,6,10-tetraazacyclohepta[de]naphthalen-10-yl)propyl)pyridin-2-amine] the IC50 [1, 4] was 0.6 nM, the IC50 [2, 5] was 0.3 nM and the IC50 [3, 6] was 6 nM.

For `CCc1c(F)ccc2cc(OC(=O)N3CCC3)cc(-c3nc4c5c(nc(OC[C@@]67CCCN6C[C@H](F)C7)nc5c3F)N(C(C)c3cccnc3N)[C@@H](C)CO4)c12` (stereo partly drawn) [Compound 304], the IC50 ([1]; read-out: NCI-H441 (KRAS G12V) IC50, pERK1/2, 2 days) was 46 nM, the IC50 ([2]; read-out: NCI-H358 (KRAS G12C) IC50, pERK1/2, 2 days) was 21 nM and the IC50 ([3]; read-out: PANC-1 (KRAS G12D) IC50, pERK1/2, 2 days) was 55 nM.

Compound `CC(c1cccnc1N)N1CCOc2nc(-c3cc(N)cc(Cl)c3C(F)(F)F)c(F)c3nc(OC[C@@]45CCCN4C[C@H](F)C5)nc1c23` (single isomer, unassigned) [Compound 72, 3-((R or S)-1-(5-(5-amino-3-chloro-2-(trifluoromethyl)phenyl)-4-fluoro-2-(((2R,7aS)-2-fluorotetrahydro-1H-pyrrolizin-7a(5H)-yl)methoxy)-8,9-dihydro-10H-7-oxa-1,3,6,10-tetraazacyclohepta[de]naphthalen-10-yl)ethyl)pyridin-2-amine] has an IC50 [1, 4] of 13 nM, an IC50 [2, 5] of 11 nM and an IC50 [3, 6] of 38 nM.

`Cc1cc2[nH]ncc2c(-c2nc3c4c(nc(OC[C@@]56CCCN5C[C@H](F)C6)nc4c2F)N(C(C)c2cccnc2N)[C@@H](C)CO3)c1C(F)(F)F` (stereo partly drawn) [Compound 312] gave an IC50 [1, 4] of 0.4 nM, an IC50 [2, 5] of 0.3 nM and an IC50 [3, 6] of 0.3 nM.

Compound `CCc1c(F)ccc2cc(O)cc(-c3nc4c5c(nc(OC[C@@]67CCCN6C[C@H](F)C7)nc5c3F)N(C(C)c3cccnc3N)[C@@H](C)CO4)c12` (single isomer, unassigned) [Compound 279, 4-((S)-10-((R or S)-1-(2-aminopyridin-3-yl)ethyl)-4-fluoro-2-(((2R,7aS)-2-fluorotetrahydro-1H-pyrrolizin-7a(5H)-yl)methoxy)-9-methyl-9,10-dihydro-8H-7-oxa-1,3,6,10-tetraazacyclohepta[de]naphthalen-5-yl)-5-ethyl-6-fluoronaphthalen-2-ol] has an IC50 [1, 4] of 0.4 nM, an IC50 [2, 5] of 0.3 nM and an IC50 [3, 6] of 0.2 nM.

`Cc1cc2[nH]ncc2c(-c2nc3c4c(nc(OC[C@@]56CCCN5C[C@H](F)C6)nc4c2F)N(C(C)c2cccnc2N)[C@H]2CCOC[C@@H]2O3)c1C(F)(F)F` (stereo partly drawn) [Compound 388] was tested, and the IC50 [1, 4] was over 100 nM, the IC50 [2, 5] was over 100 nM and the IC50 [3, 6] was over 100 nM.

In the case of `CC(c1cccnc1N)N1CCOc2nc(-c3cc(N)c(F)c(Cl)c3C(F)(F)F)c(F)c3nc(OC[C@@H]4C[C@@H](F)CN4C)nc1c23` (stereo partly drawn) [Compound 205], the IC50 [1, 4] is reported as 1 nM, the IC50 [2, 5] is reported as 0.3 nM and the IC50 [3, 6] is reported as 11 nM.

`CC(c1cccnc1N)N1CCOc2nc(-c3cc(O)cc4ccc(F)c(F)c34)c(F)c3ncnc1c23` (single isomer, unassigned) [Compound 29, (R or S)-4-(10-(1-(2-aminopyridin-3-yl)ethyl)-4-fluoro-9,10-dihydro-8H-7-oxa-1,3,6,10-tetraazacyclohepta[de]naphthalen-5-yl)-5,6-difluoronaphthalen-2-ol] showed an IC50 [1, 4] of over 1000 nM, an IC50 [2, 5] of over 1000 nM and an IC50 [3, 6] of over 1000 nM.

Work on `Cc1c(F)c(N)cc(-c2nc3c4c(nc(OC[C@@]56CCCN5C[C@H](F)C6)nc4c2F)N(C(C)c2cccnc2N)CCO3)c1Cl` (stereo partly drawn) [Compound 204] yielded an IC50 [1, 4] of 4 nM, an IC50 [2, 5] of 1 nM and an IC50 [3, 6] of 49 nM.

For `C[C@H](c1cccnc1N)N1c2nc(OC[C@@H]3C[C@@H](F)CN3C)nc3c(F)c(-c4cc(N)cc(Cl)c4C(F)(F)F)nc(c23)OC[C@@H]1C` (single isomer, unassigned) [Compound 286, 3-((R or S)-1-((S)-5-(5-amino-3-chloro-2-(trifluoromethyl)phenyl)-4-fluoro-2-(((2S,4R)-4-fluoro-1-methylpyrrolidin-2-yl)methoxy)-9-methyl-8,9-dihydro-1H-7-oxa-1,3,6,10-tetraazacyclohepta[de]naphthalen-10-yl)ethyl)pyridin-2-amine], the IC50 [1, 4] was over 100 nM, the IC50 [2, 5] was 57 nM and the IC50 [3, 6] was over 100 nM.

`CC(c1cccnc1N)N1CCOc2nc(-c3cc(O)cc(Cl)c3C3CC3)c(F)c3nc(OC[C@@H]4CCN4CC(F)F)nc1c23` (stereo partly drawn) [Compound 16] gave an IC50 [1, 4] of 5 nM, an IC50 [2, 5] of 2 nM and an IC50 [3, 6] of 151 nM.

`CC(c1cccnc1N)N1c2nc(OC[C@@]34CCCN3C[C@H](F)C4)nc3c(F)c(-c4c(C(F)(F)F)ccc5[nH]ncc45)nc(c23)OC[C@@H]1C` (stereo partly drawn) [Compound 297] showed an IC50 [1, 4] of 1 nM, an IC50 [2, 5] of 0.5 nM and an IC50 [3, 6] of 3 nM.

`Cc1cc(N)cc(-c2nc3c4c(nc(N5CCC[C@H]5CO)nc4c2F)N(C(C)c2cccnc2N)CCO3)c1C(F)(F)F` (single isomer, unassigned) [Compound 107] gave an IC50 [1, 4] of over 100 nM, an IC50 [2, 5] of 89 nM and an IC50 [3, 6] of over 100 nM.

`[2H]C1([2H])CC[C@@]2(COc3nc4c5c(nc(-c6cc(N)c(F)c(Cl)c6C(F)(F)F)c(F)c5n3)OC([2H])([2H])C([2H])([2H])N4C(C)c3ccc[n+]([O-])c3N)C[C@@H](F)CN12` (stereo partly drawn) [Compound 224] was tested, and the IC50 [1, 4] was over 100 nM, the IC50 [2, 5] was over 100 nM and the IC50 [3, 6] was over 100 nM.

Work on `Cc1cc(N)cc(-c2nc3c4c(nc(OC[C@@]56CCCN5C/C(=C\F)C6)nc4c2F)N(C(C)c2cccnc2N)CCO3)c1C(F)(F)F` (stereo partly drawn) [Compound 225] yielded an IC50 [1, 4] of 0.5 nM, an IC50 [2, 5] of 0.2 nM and an IC50 [3, 6] of 0.5 nM.

For `Cc1ccc(C(C)N2CCOc3nc(-c4cc(N)c(F)c(C)c4C(F)(F)F)c(F)c4nc(OC[C@@]56CCCN5C[C@H](F)C6)nc2c34)c(N)n1` (single isomer, unassigned) [Compound 251, 3-((R or S)-1-(5-(5-amino-4-fluoro-3-methyl-2-(trifluoromethyl)phenyl)-4-fluoro-2-(((2R,7aS)-2-fluorotetrahydro-1H-pyrrolizin-7a(5H)-yl)methoxy)-8,9-dihydro-10H-7-oxa-1,3,6,10-tetraazacyclohepta[de]naphthalen-10-yl)ethyl)-6-methylpyridin-2-amine], the IC50 [1, 4] was over 100 nM, the IC50 [2, 5] was over 100 nM and the IC50 [3, 6] was over 100 nM.

`C/C=C/c1cc(N)cc(-c2nc3c4c(nc(OC[C@@]56CCCN5C[C@H](F)C6)nc4c2F)N(C(C)c2cccnc2N)[C@@H](C)CO3)c1C(F)(F)F` (stereo partly drawn) [Compound 302] gave an IC50 [1, 4] of over 100 nM, an IC50 [2, 5] of over 100 nM and an IC50 [3, 6] of over 100 nM.

Compound `CC(c1cccnc1N)N1CCOc2nc(-c3cc(N)ccc3C(F)(F)F)c(F)c3nc(OC[C@@H]4CC(F)(F)CN4C)nc1c23` (stereo partly drawn) [Compound 37] has an IC50 [1, 4] of 26 nM, an IC50 [2, 5] of 11 nM and an IC50 [3, 6] of 851 nM.

With `[2H]C1([2H])CC[C@@]2(C([2H])([2H])Oc3nc4c5c(nc(-c6cc(N)ccc6C(F)(F)F)c(F)c5n3)OCCN4C(C)c3cccnc3N)C[C@@H](F)CN12` (stereo partly drawn) [Compound 129] the IC50 [1, 4] was 2 nM, the IC50 [2, 5] was 0.9 nM and the IC50 [3, 6] was 26 nM.
